Data on eight compounds can be found in paper PMC9468552 (Clinical and Translational Science, 2022).

Data set [1] concerns the target T1, CYP3A4 (Homo sapiens, UniProt P08684). As to the kind of experiment: Study 008: effect of EDP‐305 on combined oral contraceptive. It counts as in vivo. Particulars: for AUC0,t, Geo LSMean ratio (90% CI) / Cmax, Geo LSMean ratio (90% CI): OC + EDP‐305 vs OC alone; for AUC(0-t) / Cmax: human, plasma, oral, Geo LSMean, day 21; for AUC(0-t): AUC0,t; for Peak and systemic exposures (Cmax and AUC0‐τ), OC + EDP‐305 vs OC alone: in words.

Data set [2] concerns the target T1, CYP3A4. The experiment in a line: Study 004: DDI of EDP‐305. It counts as in vivo. Particulars: for Cmax: human, plasma, oral, Geo LSMean.
The subject of data set [3] is OATP1B1/B3 and BCRP. The experiment in a line: Study 004: DDI of EDP‐305. Type of data set: in vivo, human.
The target in data set [4] is T2, CYP1A2 (Homo sapiens, UniProt P05177).
T2 sequence (P05177 1-516): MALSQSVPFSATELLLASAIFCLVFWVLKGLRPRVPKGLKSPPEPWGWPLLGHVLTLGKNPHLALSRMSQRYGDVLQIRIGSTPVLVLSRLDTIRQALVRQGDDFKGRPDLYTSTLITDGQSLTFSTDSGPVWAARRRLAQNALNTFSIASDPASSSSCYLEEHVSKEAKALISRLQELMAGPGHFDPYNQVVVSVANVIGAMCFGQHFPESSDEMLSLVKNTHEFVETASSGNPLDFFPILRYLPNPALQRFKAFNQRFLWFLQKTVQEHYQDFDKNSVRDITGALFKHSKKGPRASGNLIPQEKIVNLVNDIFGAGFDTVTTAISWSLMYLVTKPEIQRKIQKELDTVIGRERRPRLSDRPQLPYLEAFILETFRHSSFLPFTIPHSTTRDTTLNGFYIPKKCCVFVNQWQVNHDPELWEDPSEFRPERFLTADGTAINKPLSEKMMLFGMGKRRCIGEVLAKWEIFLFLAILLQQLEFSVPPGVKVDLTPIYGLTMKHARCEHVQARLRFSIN
The experiment in a line: Study 004: DDI of EDP‐305. Type of data set: in vivo. To be noted: for Cmax: human, plasma, oral, Geo LSMean.

The mark [5] stands for this setting: OC + EDP‐305 2.5 mg tablet (test).
Setting [6] is: caffeine + EDP‐305 vs caffeine alone.
[7] abbreviates: midazolam 2 mg + EDP‐305 10 mg (test).
[8] abbreviates: midazolam + EDP‐305 vs midazolam alone.
The mark [9] stands for this setting: rosuvastatin + EDP‐305 vs rosuvastatin alone.

T1 sequence (P08684 whole entry): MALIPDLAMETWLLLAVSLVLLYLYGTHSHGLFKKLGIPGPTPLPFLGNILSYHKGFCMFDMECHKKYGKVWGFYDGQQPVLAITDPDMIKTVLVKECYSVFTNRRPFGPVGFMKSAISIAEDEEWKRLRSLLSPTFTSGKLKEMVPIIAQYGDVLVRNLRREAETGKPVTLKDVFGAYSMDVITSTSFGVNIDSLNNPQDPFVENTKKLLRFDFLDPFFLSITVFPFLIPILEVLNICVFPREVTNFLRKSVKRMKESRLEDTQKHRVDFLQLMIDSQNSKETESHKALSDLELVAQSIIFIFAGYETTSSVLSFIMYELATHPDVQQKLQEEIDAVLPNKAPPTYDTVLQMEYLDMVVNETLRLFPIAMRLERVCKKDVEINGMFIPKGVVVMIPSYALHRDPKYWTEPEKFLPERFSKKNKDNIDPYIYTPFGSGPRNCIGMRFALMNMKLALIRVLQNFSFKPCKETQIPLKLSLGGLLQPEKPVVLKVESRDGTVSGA

Consider `C#C[C@]1(O)CC[C@H]2[C@@H]3CCC4=CC(=NO)CC[C@@H]4[C@H]3CC[C@@]21CC` (mixture of isomers) [norelgestromin], for which, in data set [1], the “AUC0,t, Geo LSMean ratio (90% CI)” value is listed as 0.99 (0.92, 1.05); the “Cmax, Geo LSMean ratio (90% CI)” value is 0.94 (0.86, 1.02); the “Peak and systemic exposures (Cmax and AUC0‐τ), OC + EDP‐305 vs OC alone” value is recorded as “similar”. Also, in data set [1] (OC alone (reference)), the AUC(0-t) was determined as 25.9 ng·h/mL and the Cmax was 2.64 ng/mL. The Cmax in data set [1] (setting [5]) was 2.47 ng/mL.
For the compound `OCc1ncc2n1-c1ccc(Cl)cc1C(c1ccccc1F)=NC2` [1′‐hydroxymidazolam], the “GM AUCR0‐inf, metabolite‐to‐parent ratio” value in data set [2] (midazolam administered alone) is on record as 39.1%; in data set [2] (midazolam administered with EDP‐305), 20.6%.
For the compound `CC(C)c1nc(NS(C)(=O)=O)nc(-c2ccc(F)cc2)c1/C=C/[C@@H](O)C[C@@H](O)CC(=O)O` [N‐desmethyl‐rosuvastatin], the “GM AUCR0‐inf, metabolite‐to‐parent ratio” value in data set [3] (rosuvastatin administered alone) is reported as 16.6%; in data set [3] (rosuvastatin administered with EDP‐305), 11.2%.
In the case of `Cn1c(=O)c2c(ncn2C)n(C)c1=O` [caffeine], in data set [4] (setting [6]), the “delayed Tmax (increase)” value was found to be 50%, the “effect on Vd/F” value is recorded as “little effect”, the “increase in AUC0‐t” value was 1.90 fold and the “longer t1/2 (increase)” value turned out to be 64%. In addition, the “lower CL/F (decrease)” value in data set [4] (setting [6]) is listed as 45%. This compound also showed a Cmax in data set [4] (200 mg, caffeine 200 mg alone (reference)) of 4190 ng/mL. Besides, the Cmax in data set [4] (caffeine 200 mg + EDP‐305 10 mg (test)) is 4720 ng/mL.
`C#C[C@]1(O)CC[C@H]2[C@@H]3CCc4cc(O)ccc4[C@H]3CC[C@@]21C` [ethinyl estradiol]: in data set [1], the “AUC0,t, Geo LSMean ratio (90% CI)” value is 1.08 (1.00, 1.16); the “Cmax, Geo LSMean ratio (90% CI)” value is recorded as 1.08 (0.99, 1.19); the “Peak and systemic exposures (Cmax and AUC0‐τ), OC + EDP‐305 vs OC alone” value is on record as “similar”. Further, in data set [1] (OC alone (reference)), the AUC(0-t) came to 1.25 ng·h/mL and the Cmax was 0.137 ng/mL. In data set [1] (setting [5]), the Cmax is 0.148 ng/mL.
As for `C#C[C@]1(O)CC[C@H]2[C@@H]3CCC4=CC(=O)CC[C@@H]4[C@H]3CC[C@@]21CC` [levonorgestrel], in data set [1], the “AUC0,t, Geo LSMean ratio (90% CI)” value is listed as 1.31 (1.23, 1.39) and the “Cmax, Geo LSMean ratio (90% CI)” value is 1.29 (1.21, 1.38). Besides, in data set [1] (OC alone (reference)), the AUC(0-t) was found to be 57.2 ng·h/mL and the Cmax is 2.99 ng/mL. In addition, in data set [1] (setting [5]), the Cmax was determined as 3.85 ng/mL.
In data set [2] (2 mg, midazolam 2 mg alone (reference)), `Cc1ncc2n1-c1ccc(Cl)cc1C(c1ccccc1F)=NC2` [midazolam] came in with a Cmax of 7.51 ng/mL. Besides, in data set [2] (setting [7]), the Cmax worked out at 9.41 ng/mL and the “AUC0,inf, Geo LSMean” value came out at 32.22 ng·h/mL. Also, in data set [2] (setting [8]), the “delayed Tmax (increase)” value is recorded as 98%, the “increase in AUC0‐t” value is on record as 1.53 fold, the “longer t1/2 (increase)” value came out at 34% and the “lower CL/F (decrease)” value amounted to 36%. Also, the “lower Vd/F (decrease)” value in data set [2] (setting [8]) is reported as 14%.
Turning to `CC(C)c1nc(N(C)S(C)(=O)=O)nc(-c2ccc(F)cc2)c1/C=C/[C@@H](O)C[C@@H](O)CC(=O)O` [rosuvastatin], in data set [3] (human, plasma, oral, Cmax, Geo LSMean, rosuvastatin 20 mg + EDP‐305 10 mg (test)), the Cmax amounted to 5.59 ng/mL. Besides, in data set [3] (setting [9]), the “effect on Tmax” value is “no apparent effect”, the “increase in AUC0‐t” value is 1.24 fold, the “longer t1/2 (increase)” value worked out at 17% and the “lower CL/F (decrease)” value is 20%.
